The target of assay [1] is PI3Kδ (p110δ/p85α) Recombinant Human Protein (Homo sapiens (Human), UniProt O00329). The experiment in a line: PI3Kδ scintillation proximity assay. As to conditions: 2 μM ATP, 20 μM PIP2. It counts as biochemical. (In a scintillation proximity assay essentially only radioactivity close to the scintillant gives light.)
In assay [2] the test system is Phosphorylated Ribosomal Protein S6 (RPS6) in THP-1 cells. The experiment in a line: THP-1 RPS6 ELISA assay. As to conditions: Homo sapiens, THP-1, THP-1 cells, 10 nM MCP-1; read-out: PI3Kγ_THP1_RPS6_ELISA IC50. It counts as cell-based, human. (In general: ELISA stands for enzyme-linked immunosorbent assay.)
In assay [3] the target is PI3Kγ (p110γ) Recombinant Human Protein (Homo sapiens (Human), UniProt P48736). The experiment in a line: PI3K-γ scintillation proximity assay. The settings on record: 2 μM ATP, 20 μM PIP2. It counts as biochemical.
PI3Kγ (p110γ) Recombinant Human Protein, sequence (P48736 whole entry): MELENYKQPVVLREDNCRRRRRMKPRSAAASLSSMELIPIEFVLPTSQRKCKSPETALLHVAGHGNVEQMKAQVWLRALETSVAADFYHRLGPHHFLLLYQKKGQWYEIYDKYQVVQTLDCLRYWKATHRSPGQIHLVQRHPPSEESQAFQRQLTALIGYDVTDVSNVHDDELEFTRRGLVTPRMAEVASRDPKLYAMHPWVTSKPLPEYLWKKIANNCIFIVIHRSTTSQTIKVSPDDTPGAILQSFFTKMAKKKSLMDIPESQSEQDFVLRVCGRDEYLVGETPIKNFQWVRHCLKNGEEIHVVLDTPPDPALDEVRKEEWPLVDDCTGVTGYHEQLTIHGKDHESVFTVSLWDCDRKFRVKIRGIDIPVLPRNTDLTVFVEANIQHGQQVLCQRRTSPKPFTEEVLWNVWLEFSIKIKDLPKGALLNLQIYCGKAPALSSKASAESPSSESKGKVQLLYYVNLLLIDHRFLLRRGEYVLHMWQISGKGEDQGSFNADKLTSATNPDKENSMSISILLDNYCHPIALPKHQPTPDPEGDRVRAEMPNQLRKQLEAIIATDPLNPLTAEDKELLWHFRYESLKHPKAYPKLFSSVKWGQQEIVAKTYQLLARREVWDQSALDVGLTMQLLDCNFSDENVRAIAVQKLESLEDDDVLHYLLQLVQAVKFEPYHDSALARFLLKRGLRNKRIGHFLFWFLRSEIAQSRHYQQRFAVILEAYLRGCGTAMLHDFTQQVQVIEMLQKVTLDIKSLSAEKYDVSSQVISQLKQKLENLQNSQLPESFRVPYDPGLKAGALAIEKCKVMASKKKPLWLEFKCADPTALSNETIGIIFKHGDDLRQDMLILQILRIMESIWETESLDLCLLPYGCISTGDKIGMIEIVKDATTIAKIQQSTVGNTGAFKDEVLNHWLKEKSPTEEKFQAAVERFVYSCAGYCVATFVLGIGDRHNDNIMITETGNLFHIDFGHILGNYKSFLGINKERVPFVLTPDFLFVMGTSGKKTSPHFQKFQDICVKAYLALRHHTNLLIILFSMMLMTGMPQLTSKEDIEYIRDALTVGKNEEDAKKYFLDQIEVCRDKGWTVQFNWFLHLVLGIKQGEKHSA

The values that follow come from US10065963B2 (Incyte Corporation, priority 2015, dated 2018).

Where a name gives a salt, the structure may show the parent alone.

PI3Kδ (p110δ/p85α) Recombinant Human Protein, sequence (O00329 whole entry): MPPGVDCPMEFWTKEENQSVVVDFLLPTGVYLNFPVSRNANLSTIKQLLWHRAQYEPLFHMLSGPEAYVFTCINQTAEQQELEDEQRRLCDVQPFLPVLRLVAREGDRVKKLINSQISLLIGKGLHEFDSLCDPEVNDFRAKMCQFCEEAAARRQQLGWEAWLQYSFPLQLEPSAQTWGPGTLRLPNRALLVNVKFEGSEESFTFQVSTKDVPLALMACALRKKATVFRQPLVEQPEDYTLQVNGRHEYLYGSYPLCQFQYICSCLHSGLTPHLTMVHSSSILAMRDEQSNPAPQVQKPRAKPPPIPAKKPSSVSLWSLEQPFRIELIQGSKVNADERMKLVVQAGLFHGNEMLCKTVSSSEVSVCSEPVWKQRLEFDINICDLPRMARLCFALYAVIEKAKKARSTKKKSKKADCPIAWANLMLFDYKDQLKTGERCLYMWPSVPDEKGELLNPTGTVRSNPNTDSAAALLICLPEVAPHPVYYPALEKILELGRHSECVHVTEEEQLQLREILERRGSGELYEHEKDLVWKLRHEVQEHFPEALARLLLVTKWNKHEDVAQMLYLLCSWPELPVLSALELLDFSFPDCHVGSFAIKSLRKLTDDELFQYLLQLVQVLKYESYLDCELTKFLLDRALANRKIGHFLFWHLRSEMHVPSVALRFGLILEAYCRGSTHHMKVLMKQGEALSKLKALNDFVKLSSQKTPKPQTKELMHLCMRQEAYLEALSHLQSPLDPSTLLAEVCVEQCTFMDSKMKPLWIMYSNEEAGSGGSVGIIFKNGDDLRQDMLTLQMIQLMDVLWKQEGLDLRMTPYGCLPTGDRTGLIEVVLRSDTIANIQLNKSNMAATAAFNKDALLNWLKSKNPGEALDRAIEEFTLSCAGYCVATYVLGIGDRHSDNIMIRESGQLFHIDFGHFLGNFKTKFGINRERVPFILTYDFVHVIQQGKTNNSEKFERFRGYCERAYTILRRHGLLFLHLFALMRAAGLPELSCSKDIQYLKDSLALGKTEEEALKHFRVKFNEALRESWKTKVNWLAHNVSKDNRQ
PI3Kδ (p110δ/p85α) Recombinant Human Protein, sequence (P27986 whole entry partner): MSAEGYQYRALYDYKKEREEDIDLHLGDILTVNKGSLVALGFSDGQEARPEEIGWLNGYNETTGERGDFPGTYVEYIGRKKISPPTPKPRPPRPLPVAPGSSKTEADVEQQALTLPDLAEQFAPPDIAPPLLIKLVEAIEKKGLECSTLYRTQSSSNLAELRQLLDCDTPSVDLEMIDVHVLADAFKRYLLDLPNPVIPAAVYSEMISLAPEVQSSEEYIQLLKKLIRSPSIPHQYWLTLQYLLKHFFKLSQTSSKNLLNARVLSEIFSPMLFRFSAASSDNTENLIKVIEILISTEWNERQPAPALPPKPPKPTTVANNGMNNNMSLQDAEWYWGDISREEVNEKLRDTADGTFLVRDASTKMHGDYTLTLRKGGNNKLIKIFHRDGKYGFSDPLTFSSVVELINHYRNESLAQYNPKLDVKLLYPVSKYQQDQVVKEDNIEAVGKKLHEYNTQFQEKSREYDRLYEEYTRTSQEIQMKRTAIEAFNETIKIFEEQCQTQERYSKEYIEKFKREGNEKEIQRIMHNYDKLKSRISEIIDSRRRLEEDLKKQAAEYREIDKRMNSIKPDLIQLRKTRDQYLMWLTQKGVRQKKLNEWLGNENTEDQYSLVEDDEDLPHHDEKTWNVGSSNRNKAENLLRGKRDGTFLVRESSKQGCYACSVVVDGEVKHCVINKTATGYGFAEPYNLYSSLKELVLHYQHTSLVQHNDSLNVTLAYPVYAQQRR

For orientation: IC50 means the concentration needed to halve the response being measured. Turning to `CC(NC(=O)c1c(N)nn2cccnc12)c1cc(Cl)c2cncn2c1C1CCCC1` (stereo not drawn) [Example 62, 2-amino-N-(1-(8-chloro-5-cyclopentylimidazo[1,5-a]pyridin-6-yl)ethyl)pyrazolo[1,5-a]pyrimidine-3-carboxamide trifluoroacetate], the IC50 in assay [1] is under 500 nM; in assay [2], under 500 nM; in assay [3] it was under 100 nM.
As to `CC(NC(=O)c1c(N)nn2cccnc12)c1cc(Cl)c2cnnn2c1-c1ccccc1` (stereo not drawn) [Example 63, 2-Amino-N-(1-(4-chloro-7-phenyl-[1,2,3]triazolo[1,5-a]pyridin-6-yl)ethyl)pyrazolo[1,5-a]pyrimidine-3-carboxamide trifluoroacetate], the IC50 in assay [1], in assay [2] and in assay [3] was under 500 nM each time.
For the molecule `CC(NC(=O)c1c(N)nn2cccnc12)c1cc(Cl)c2cncn2c1N1CCC(F)(F)CC1` (stereo not drawn) [Example 65, 2-Amino-N-{1-[8-chloro-5-(4,4-difluoropiperidin-1-yl)imidazo[1,5-a]pyridin-6-yl]ethyl}pyrazolo[1,5-a]pyrimidine-3-carboxamide bistrifluoroacetate], the values for the IC50 in assay [1], in assay [2] and in assay [3] were under 100 nM, under 500 nM and under 100 nM, respectively.
Consider `CC(NC(=O)c1c(N)nn2cccnc12)c1cc(Cl)c2cncn2c1N1CCC(F)CC1` (stereo not drawn) [Example 66, 2-Amino-N-{1-[8-chloro-5-(4-fluoropiperidin-1-yl)imidazo[1,5-a]pyridin-6-yl]ethyl}pyrazolo[1,5-a]pyrimidine-3-carboxamide bistrifluoroacetate], for which the IC50 was under 100 nM in assay [1], under 500 nM in assay [2] and under 100 nM in assay [3].
Consider `CC(NC(=O)c1c(N)nn2cccnc12)c1cc(Cl)c2cncn2c1N1CCCC(F)(F)C1` (stereo not drawn) [Example 67, 2-Amino-N-{1-[8-chloro-5-(3,3-difluoropiperidin-1-yl)imidazo[1,5-a]pyridin-6-yl]ethyl}pyrazolo[1,5-a]pyrimidine-3-carboxamide bis trifluroacetate], for which the results for the IC50 in assay [1], in assay [2] and in assay [3] were under 100 nM, under 500 nM and under 100 nM, respectively.
In the case of `CC(NC(=O)c1c(N)nn2cccnc12)c1cc(Cl)c2cncn2c1N1CCC(F)(F)C1` (stereo not drawn) [Example 68, 2-Amino-N-{1-[8-chloro-5-(3,3-difluoropyrrolidin-1-yl)imidazo[1,5-a]pyridin-6-yl]ethyl}pyrazolo[1,5-a]pyrimidine-3-carboxamide bistrifluoroacetate], the IC50 in assay [1] is under 100 nM; in assay [2], under 500 nM; in assay [3], under 100 nM.
Consider `CC1CCN(c2c(C(C)NC(=O)c3c(N)nn4cccnc34)cc(Cl)c3cncn23)CC1` (stereo not drawn) [Example 69, 2-Amino-N-{1-[8-chloro-5-(4-methylpiperidin-1-yl)imidazo[1,5-a]pyridin-6-yl]ethyl}pyrazolo[1,5-a]pyrimidine-3-carboxamide bistrifluoroacetate], for which the IC50 is under 500 nM in assay [1], under 1000 nM in assay [2] and under 100 nM in assay [3].
Consider `CC(NC(=O)c1c(N)nn2cccnc12)c1cc(Cl)c2cncn2c1N1CCCC1(C)C` (stereo not drawn) [Example 70, 2-Amino-N-{1-[8-chloro-5-(2,2-dimethylpyrrolidin-1-yl)imidazo[1,5-a]pyridin-6-yl]ethyl}pyrazolo[1,5-a]pyrimidine-3-carboxamide bistrifluoroacetate], for which the IC50 in assay [1] is under 100 nM; in assay [2], under 500 nM; in assay [3] it was under 100 nM.
Turning to `CC(NC(=O)c1c(N)nn2cccnc12)c1cc(Cl)c2cncn2c1N1CCC[C@H]1C` (stereo partly drawn) [Example 71A, 2-Amino-N-(1-{8-chloro-5-[(2R)-2-methylpyrrolidin-1-yl]imidazo[1,5-a]pyridin-6-yl}ethyl)pyrazolo[1,5-a]pyrimidine-3-carboxamide bistrifluoroacetate], the results for the IC50 in assay [1], in assay [2] and in assay [3] were under 500 nM, under 1000 nM and under 100 nM, respectively.
For the molecule `CC(NC(=O)c1c(N)nn2cccnc12)c1cc(Cl)c2cncn2c1N1CCC[C@@H]1C` (stereo partly drawn) [Example 71B, 2-Amino-N-(1-{8-chloro-5-[(2S)-2-methylpyrrolidin-1-yl]imidazo[1,5-a]pyridin-6-yl}ethyl)pyrazolo[1,5-a]pyrimidine-3-carboxamide bistrifluoroacetate], the results for the IC50 in assay [1], in assay [2] and in assay [3] were under 100 nM, under 500 nM and under 100 nM, respectively.
As to `CC(NC(=O)c1c(N)nn2cccnc12)c1cc(Cl)c2cncn2c1N1CCCC[C@H]1C` (stereo partly drawn) [Example 72A, 2-Amino-N-{1-[8-chloro-5-[(2R)-2-methylpiperidin-1-yl)imidazo[1,5-a]pyridin-6-yl]ethyl}pyrazolo[1,5-a]pyrimidine-3-carboxamide bistrifluoroacetate], the half-inhibitory concentration (IC50) in assay [1] is under 100 nM; in assay [2], under 500 nM; in assay [3] it was under 100 nM.
For `CC(NC(=O)c1c(N)nn2cccnc12)c1cc(Cl)c2cncn2c1N1CCCC[C@@H]1C` (stereo partly drawn) [Example 72B, 2-Amino-N-{1-[8-chloro-5-[(2S)-2-methylpiperidin-1-yl)imidazo[1,5-a]pyridin-6-yl]ethyl}pyrazolo[1,5-a]pyrimidine-3-carboxamide bistrifluoroacetate], the IC50 in assay [1] is under 100 nM; in assay [2], under 500 nM; in assay [3] it was under 100 nM.
For the molecule `CC(NC(=O)c1c(N)nn2cccnc12)c1cc(Cl)c2cncn2c1N1CCC(C)(C)C1` (stereo not drawn) [Example 74, 2-Amino-N-{1-[8-chloro-5-(3,3-dimethylpyrrolidin-1-yl)imidazo[1,5-a]pyridin-6-yl]ethyl}pyrazolo[1,5-a]pyrimidine-3-carboxamide bistrifluoroacetate], the IC50 was under 100 nM in assay [1], under 500 nM in assay [2] and under 100 nM in assay [3].
For `CC(NC(=O)c1c(N)nn2cccnc12)c1cc(Cl)c2cncn2c1N1CC[C@@H](F)C1` (stereo partly drawn) [Example 75A, 2-Amino-N-(1-{8-chloro-5-[(3R)-3-fluoropyrrolidin-1-yl]imidazo[1,5-a]pyridin-6-yl}ethyl)pyrazolo[1,5-a]pyrimidine-3-carboxamide bistrifluoroacetate], the figures for the IC50 in assay [1], in assay [2] and in assay [3] were under 500 nM, under 500 nM and under 100 nM, respectively.
With `CC(NC(=O)c1c(N)nn2cccnc12)c1cc(Cl)c2cncn2c1N1CC[C@H](F)C1` (stereo partly drawn) [Example 75B, 2-Amino-N-(1-{8-chloro-5-[(3S)-3-fluoropyrrolidin-1-yl]imidazo[1,5-a]pyridin-6-yl}ethyl)pyrazolo[1,5-a]pyrimidine-3-carboxamide bistrifluoroacetate], the IC50 in assay [1] was under 100 nM; in assay [2] it was under 500 nM; in assay [3] it was under 100 nM.
In the case of `CC(NC(=O)c1c(N)nn2cccnc12)c1cc(Cl)c2cncn2c1N1CCC2(CC1)COC(=O)N2` (stereo not drawn) [Example 79, 2-Amino-N-{1-[8-chloro-5-(2-oxo-3-oxa-1,8-diazaspiro[4.5]dec-8-yl)imidazo[1,5-a]pyridin-6-yl]ethyl}pyrazolo[1,5-a]pyrimidine-3-carboxamide trifluoroacetate], the values for the IC50 in assay [1], in assay [2] and in assay [3] were under 500 nM, over 1000 nM and under 100 nM, respectively.
In the case of `CC(NC(=O)c1c(N)nn2cccnc12)c1cc(Cl)c2cncn2c1N1CCC2(CC1)CNC(=O)O2` (stereo not drawn) [Example 80, 2-Amino-N-{1-[8-chloro-5-(2-oxo-1-oxa-3,8-diazaspiro[4.5]dec-8-yl)imidazo[1,5-a]pyridin-6-yl]ethyl}pyrazolo[1,5-a]pyrimidine-3-carboxamide trifluoroacetate], the IC50 in assay [1] was under 500 nM; in assay [2], under 500 nM; in assay [3], under 100 nM.
`COCCOc1c(C(C)NC(=O)c2c(N)nn3cccnc23)cc(Cl)c2cn[nH]c12` (stereo not drawn) [Example 81, 2-Amino-N-(1-(4-chloro-7-(2-methoxyethoxy)-1H-indazol-6-yl)ethyl)pyrazolo[1,5-a]pyrimidine-3-carboxamide trifluoroacetate]: the IC50 is under 100 nM in assay [1], under 500 nM in assay [2] and under 100 nM in assay [3].
With `COc1c(C(C)NC(=O)c2c(N)nn3cccnc23)cc(Cl)c2cn[nH]c12` (stereo not drawn) [Example 82, 2-Amino-N-(1-(4-chloro-7-methoxy-1H-indazol-6-yl)ethyl)pyrazolo[1,5-a]pyrimidine-3-carboxamide trifluoroacetate], the results for the IC50 in assay [1], in assay [2] and in assay [3] were under 100 nM, under 500 nM and under 100 nM, respectively.
Turning to `CC(NC(=O)c1c(N)nn2cccnc12)c1cc(Cl)c2cn[nH]c2c1OC(F)F` (stereo not drawn) [Example 83, 2-Amino-N-(1-(4-chloro-7-(difluoromethoxy)-1H-indazol-6-yl)ethyl)pyrazolo[1,5-a]pyrimidine-3-carboxamide trifluoroacetate], the IC50 is under 100 nM in assay [1], under 500 nM in assay [2] and under 100 nM in assay [3].
With `CC(NC(=O)c1c(N)nn2cccnc12)c1cc(Cl)c2cn[nH]c2c1OCCO` (stereo not drawn) [Example 84, 2-Amino-N-(1-(4-chloro-7-(2-hydroxyethoxy)-1H-indazol-6-yl)ethyl)pyrazolo[1,5-a]pyrimidine-3-carboxamide trifluoroacetate], the IC50 in assay [1] was under 100 nM; in assay [2] it was under 500 nM; in assay [3], under 100 nM.
As for `CC(NC(=O)c1c(N)nn2cccnc12)c1cc(Cl)c2cn[nH]c2c1OCC(O)CO` (stereo not drawn) [Example 85, 2-Amino-N-(1-(4-chloro-7-(2,3-dihydroxypropoxy)-1H-indazol-6-yl)ethyl)pyrazolo[1,5-a]pyrimidine-3-carboxamide trifluoroacetate], the IC50 was under 100 nM in assay [1], under 500 nM in assay [2] and under 100 nM in assay [3].
As to `CCOc1c(C(C)NC(=O)c2c(N)nn3cccnc23)cc(Cl)c2c(C#N)n[nH]c12` (stereo not drawn) [Example 86, 2-Amino-N-(1-(4-chloro-3-cyano-7-ethoxy-1H-indazol-6-yl)ethyl)pyrazolo[1,5-a]pyrimidine-3-carboxamide trifluoroacetate], the values for the IC50 in assay [1], in assay [2] and in assay [3] were under 500 nM, over 1000 nM and under 100 nM, respectively.
